Measured values taken from the NIST ThermoML archive (doi:10.1021/je050159x).

How the values were obtained:
[1] = for mass density: 101.33 kPa, Liquid
[2] = xn = mol fraction of the nth substance listed

OCc1ccccc1 [benzenemethanol]
[1]
Details	mass density [kg/m3]	surface tension liquid-gas [mN/m]
293.15 K	1045.2	39.05
298.15 K	1041.4	38.58
303.15 K	–	38.12
308.15 K	–	37.63
313.15 K	1029.8	37.16
318.15 K	–	36.63
323.15 K	–	36.18

OCc1ccccc1 [benzenemethanol] + C1CCCCC1
surface tension liquid-gas [mN/m], [2]
Details	x2 = 0	x2 = 0.0068	x2 = 0.0079	x2 = 0.0107	x2 = 0.0202	x2 = 0.0312	x2 = 0.0409	x2 = 0.0655
293.15 K	39.05	37.88	37.73	37.48	37.07	36.53	35.88	34.14
298.15 K	38.58	37.43	37.39	37.15	36.68	36.25	35.66	34.04
303.15 K	38.12	37.06	36.93	36.74	36.32	35.98	35.41	33.94
308.15 K	37.63	36.66	36.54	36.38	35.92	35.73	35.22	33.82
313.15 K	37.16	36.29	36.12	35.99	35.58	35.47	34.96	33.72
318.15 K	36.63	35.84	35.74	35.66	35.24	35.22	34.77	33.61
323.15 K	36.18	35.5	35.32	35.25	34.86	34.96	34.53	33.5

OCc1ccccc1 [benzenemethanol] + CCCCCC
surface tension liquid-gas [mN/m], [2]
Details	x2 = 0	x2 = 0.0068	x2 = 0.0085	x2 = 0.0198	x2 = 0.0215	x2 = 0.0264	x2 = 0.0493	x2 = 0.07
293.15 K	39.05	37.39	37.24	34.45	33.73	33.22	30.61	27.46
298.15 K	38.58	37.1	36.85	34.74	34.04	33.56	31.06	27.96
303.15 K	38.12	36.84	36.41	35.03	34.38	33.86	31.54	28.72
308.15 K	37.63	36.53	36.01	35.35	34.69	34.25	31.92	29.29
313.15 K	37.16	36.3	35.6	35.63	34.99	34.59	32.35	29.9

OCc1ccccc1 [benzenemethanol] + CCCCCCC
surface tension liquid-gas [mN/m], [2]
Details	x2 = 0	x2 = 0.0065	x2 = 0.009	x2 = 0.0112	x2 = 0.0238	x2 = 0.0306	x2 = 0.0445	x2 = 0.067
293.15 K	39.05	37.77	37.07	–	33.61	32.37	28.84	26.09
298.15 K	38.58	37.47	36.87	34.69	33.83	32.58	29.16	26.47
303.15 K	38.12	37.1	36.62	35.02	34.05	32.82	29.43	26.89
308.15 K	37.63	36.78	36.41	35.28	34.27	33.04	29.68	27.27
313.15 K	37.16	36.49	36.16	35.53	34.48	33.24	30	27.7
318.15 K	36.63	36.18	35.95	35.83	34.7	33.46	30.3	28.08
323.15 K	36.18	35.92	35.74	36.11	34.95	33.68	30.61	28.46

OCc1ccccc1 [benzenemethanol] + CCCCCCCCC
surface tension liquid-gas [mN/m], [2]
Details	x2 = 0	x2 = 0.0061	x2 = 0.008	x2 = 0.0116	x2 = 0.0204	x2 = 0.0329	x2 = 0.0408	x2 = 0.0668
293.15 K	39.05	36.83	36.33	35.34	32.52	30.44	28.73	26.66
298.15 K	38.58	36.4	35.95	35.13	32.31	30.23	28.52	26.56
303.15 K	38.12	35.85	35.52	34.59	32.02	30	28.22	26.38
308.15 K	37.63	35.51	35.21	34.33	31.83	29.85	28.03	26.28
313.15 K	37.16	35.03	34.84	33.98	31.61	29.62	27.82	26.19
318.15 K	36.63	34.61	34.5	33.67	31.41	29.44	27.67	26.12
323.15 K	36.18	34.25	34.16	33.32	31.22	29.25	27.46	26.02

C1CCCCC1 [cyclohexane]
[1]
Details	mass density [kg/m3]	surface tension liquid-gas [mN/m]
293.15 K	778.6	25.06
298.15 K	773.9	24.45
303.15 K	–	23.87
308.15 K	–	23.21
313.15 K	759.6	22.71
318.15 K	–	22.05
323.15 K	–	21.45

C1CCCCC1 [cyclohexane] + OCc1ccccc1
[2], x1 = 1
Details	surface tension liquid-gas [mN/m]
293.15 K	25.06
298.15 K	24.45
303.15 K	23.87
308.15 K	23.21
313.15 K	22.71
318.15 K	22.05
323.15 K	21.45

CCCCCCC [heptane]
[1]
Details	mass density [kg/m3]	surface tension liquid-gas [mN/m]
293.15 K	696	20.05
298.15 K	691.9	19.54
303.15 K	–	19.1
308.15 K	–	18.58
313.15 K	680	18.08
318.15 K	–	17.6
323.15 K	–	17.06

CCCCCCC [heptane] + OCc1ccccc1
[2], x1 = 1
Details	surface tension liquid-gas [mN/m]
293.15 K	20.05
298.15 K	19.54
303.15 K	19.1
308.15 K	18.58
313.15 K	18.08
318.15 K	17.6
323.15 K	17.06

CCCCCC [hexane]
[1]
Details	mass density [kg/m3]	surface tension liquid-gas [mN/m]
293.15 K	660.2	18.56
298.15 K	655.4	18.03
303.15 K	–	17.44
308.15 K	–	16.92
313.15 K	641.4	16.38

CCCCCC [hexane] + OCc1ccccc1
[2], x1 = 1
Details	surface tension liquid-gas [mN/m]
293.15 K	18.56
298.15 K	18.03
303.15 K	17.44
308.15 K	16.92
313.15 K	16.38

CCCCCCCCC [nonane]
[1]
Details	mass density [kg/m3]	surface tension liquid-gas [mN/m]
293.15 K	717.7	23.04
298.15 K	713.9	22.49
303.15 K	–	22.04
308.15 K	–	21.49
313.15 K	694.2	20.94
318.15 K	–	20.47
323.15 K	–	19.98

CCCCCCCCC [nonane] + OCc1ccccc1
[2], x1 = 1
Details	surface tension liquid-gas [mN/m]
293.15 K	23.04
298.15 K	22.49
303.15 K	22.04
308.15 K	21.49
313.15 K	20.94
318.15 K	20.47
323.15 K	19.98
